Laboratory results published in paper PMC7338734 (Neuroscience Insights, 2020).

What was measured:
[1] = biological target: Acetylcholinesterase (AChE) (Electrophorus electricus, UniProt O42275); experiment: Ellman's assay, purified enzyme from electric eel; assay type: biochemical
[2] = biological target: Butyrylcholinesterase (BuChE) (Equus caballus, UniProt P81908); experiment: Ellman's assay, purified enzyme from equine serum; assay type: biochemical
Sequence of Butyrylcholinesterase (BuChE) (P81908 whole entry): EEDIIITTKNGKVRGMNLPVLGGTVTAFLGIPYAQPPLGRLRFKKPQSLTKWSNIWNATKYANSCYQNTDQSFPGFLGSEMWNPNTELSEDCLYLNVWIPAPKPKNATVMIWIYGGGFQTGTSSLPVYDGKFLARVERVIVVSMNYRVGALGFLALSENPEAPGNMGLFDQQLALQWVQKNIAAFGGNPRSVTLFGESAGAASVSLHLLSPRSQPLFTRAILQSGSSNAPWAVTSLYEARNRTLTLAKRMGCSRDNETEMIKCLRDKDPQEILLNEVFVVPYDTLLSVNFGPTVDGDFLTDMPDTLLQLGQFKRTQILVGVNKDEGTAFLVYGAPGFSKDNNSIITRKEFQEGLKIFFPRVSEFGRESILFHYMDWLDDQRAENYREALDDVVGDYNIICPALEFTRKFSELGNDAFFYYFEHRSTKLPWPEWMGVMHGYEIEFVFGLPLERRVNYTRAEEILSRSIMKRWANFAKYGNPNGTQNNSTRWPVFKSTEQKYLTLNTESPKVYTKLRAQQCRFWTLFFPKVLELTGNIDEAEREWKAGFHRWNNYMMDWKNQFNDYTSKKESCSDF

Sequence of Acetylcholinesterase (AChE) (O42275 24-633): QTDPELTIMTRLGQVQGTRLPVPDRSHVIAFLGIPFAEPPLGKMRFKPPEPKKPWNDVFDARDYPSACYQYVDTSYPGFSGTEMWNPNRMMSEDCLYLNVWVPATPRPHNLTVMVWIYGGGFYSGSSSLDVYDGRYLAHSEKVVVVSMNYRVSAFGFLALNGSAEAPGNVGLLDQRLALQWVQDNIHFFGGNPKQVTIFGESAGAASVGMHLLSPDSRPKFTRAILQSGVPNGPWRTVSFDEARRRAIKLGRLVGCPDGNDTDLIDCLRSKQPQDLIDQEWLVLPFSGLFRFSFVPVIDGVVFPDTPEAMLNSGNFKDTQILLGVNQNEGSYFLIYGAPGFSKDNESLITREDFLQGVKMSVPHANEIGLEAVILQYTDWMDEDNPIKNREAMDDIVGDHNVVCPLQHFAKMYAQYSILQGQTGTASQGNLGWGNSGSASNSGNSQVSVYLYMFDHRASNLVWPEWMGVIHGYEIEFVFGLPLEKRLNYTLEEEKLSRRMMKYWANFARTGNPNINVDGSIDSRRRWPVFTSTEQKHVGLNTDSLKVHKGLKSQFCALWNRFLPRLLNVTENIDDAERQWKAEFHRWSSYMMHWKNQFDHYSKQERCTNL

COc1cc2ccc(=O)oc2cc1O [scopoletin, 6-methoxy-7-hydroxycoumarin]
IC50 [1]: 5.34 µM
IC50 [2]: 9.11 µM
